ChEMBL document CHEMBL3813599, “Identification of small-molecule compounds targeting the dishevelled PDZ domain by virtual screening and binding studies” (Bioorg Med Chem, 2016)
Active and inactive are the calls of the source. The rule behind the calls is not given here.

Columns and labels:
[1] = target: T1, Segment polarity protein dishevelled homolog DVL-1 (Homo sapiens, UniProt O14640); experiment: Binding affinity to His-tagged Dvl-1 PDZ domain (247 to 337 residues) (unknown origin) expressed in Escherichia coli BL21 (DE3) by SPR analysis
T1 sequence (O14640 whole entry): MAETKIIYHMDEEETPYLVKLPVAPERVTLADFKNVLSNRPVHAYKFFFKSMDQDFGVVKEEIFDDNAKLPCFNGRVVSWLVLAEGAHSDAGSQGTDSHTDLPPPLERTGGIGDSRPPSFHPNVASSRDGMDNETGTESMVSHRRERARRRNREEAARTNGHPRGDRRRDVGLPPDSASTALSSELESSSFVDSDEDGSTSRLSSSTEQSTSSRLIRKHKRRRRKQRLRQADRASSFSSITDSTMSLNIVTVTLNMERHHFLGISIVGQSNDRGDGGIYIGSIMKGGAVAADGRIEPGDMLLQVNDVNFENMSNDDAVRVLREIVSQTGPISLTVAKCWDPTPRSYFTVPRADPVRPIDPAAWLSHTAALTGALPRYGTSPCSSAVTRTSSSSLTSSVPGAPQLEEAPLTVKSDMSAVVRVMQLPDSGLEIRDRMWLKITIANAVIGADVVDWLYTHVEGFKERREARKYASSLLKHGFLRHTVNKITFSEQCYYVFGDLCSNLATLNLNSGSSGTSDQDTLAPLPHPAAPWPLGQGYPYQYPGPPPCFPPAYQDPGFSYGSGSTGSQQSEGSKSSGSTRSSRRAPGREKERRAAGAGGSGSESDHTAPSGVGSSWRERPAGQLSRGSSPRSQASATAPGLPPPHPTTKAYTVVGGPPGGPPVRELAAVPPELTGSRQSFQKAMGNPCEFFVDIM

[2] = target: T2, Segment polarity protein dishevelled homolog DVL-1 (Homo sapiens) (UniProt O14640)
T2 sequence (whole entry): T1 sequence (O14640 whole entry)
Description: Binding affinity to His-tagged Dvl-1 PDZ domain (247 to 337 residues) (unknown origin) expressed in Escherichia coli BL21 (DE3) assessed as association rate by SPR analysis

[3] = target: T1, Segment polarity protein dishevelled homolog DVL-1; experiment: Binding affinity to His-tagged Dvl-1 PDZ domain (247 to 337 residues) (unknown origin) expressed in Escherichia coli BL21 (DE3) assessed as dissociation rate by SPR analysis
[4] = target: T2, Segment polarity protein dishevelled homolog DVL-1 (Homo sapiens); experiment: Binding affinity to His-tagged Dvl-1 PDZ domain (247 to 337 residues) (unknown origin) expressed in Escherichia coli BL21 (DE3) assessed as chemical shift perturbations at 1:0 to 1:20 protein-compound ratio by 1H-15N-HSQC NMR analysis
[5] = target: T3, Segment polarity protein dishevelled homolog DVL-1 (Mus musculus, UniProt P51141); experiment: Binding affinity to TMR-linked 15N-labeled mouse Dvl-1 domain ( 247 to 341 residues) by fluorescence spectroscopy
T3 sequence (P51141 whole entry): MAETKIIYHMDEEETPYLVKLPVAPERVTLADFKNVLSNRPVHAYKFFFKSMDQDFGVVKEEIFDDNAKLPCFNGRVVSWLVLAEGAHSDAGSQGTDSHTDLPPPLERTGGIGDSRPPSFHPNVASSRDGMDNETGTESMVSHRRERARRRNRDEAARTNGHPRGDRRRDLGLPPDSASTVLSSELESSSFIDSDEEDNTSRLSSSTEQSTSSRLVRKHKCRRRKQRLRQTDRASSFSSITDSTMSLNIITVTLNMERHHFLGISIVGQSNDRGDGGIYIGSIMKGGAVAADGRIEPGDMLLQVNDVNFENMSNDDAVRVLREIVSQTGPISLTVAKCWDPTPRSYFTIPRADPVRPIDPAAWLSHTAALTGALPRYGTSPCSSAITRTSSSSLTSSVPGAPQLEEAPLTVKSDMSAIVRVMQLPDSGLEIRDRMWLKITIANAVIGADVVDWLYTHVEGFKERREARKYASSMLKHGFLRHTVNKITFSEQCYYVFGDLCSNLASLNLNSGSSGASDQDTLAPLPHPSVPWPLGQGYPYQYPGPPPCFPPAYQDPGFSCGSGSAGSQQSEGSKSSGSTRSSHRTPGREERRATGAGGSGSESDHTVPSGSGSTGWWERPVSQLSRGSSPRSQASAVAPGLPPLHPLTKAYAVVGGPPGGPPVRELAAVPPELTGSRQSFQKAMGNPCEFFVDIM

| Kd [1] [µM] | Ka [2] | Dissociation rate constant (koff) [3] | Activity [4] | Kd [5] [µM] | Compound |
| --- | --- | --- | --- | --- | --- |
| 783 | 3.2 ×10³ /M/s | 2.51 s⁻¹ |  |  | COC(=O)COc1ccc(/C=C2\Sc3ccccc3C2=O)cc1 |
| 152 | 2.5 ×10³ /M/s | 3.81 ×10⁻¹ /s |  |  | CCCN1C(=O)/C(=C/c2ccc(OCC(=O)O)c(Cl)c2)NC1=S |
| 268 | 2.32 ×10³ /M/s | 6.22 ×10⁻¹ /s | Active |  | COc1cc(/C=C2\Sc3ccccc3C2=O)ccc1OCC(=O)O |

Further lines, the compound ahead of its results:

| Compound | Kd [1] [µM] | Ka [2] | Dissociation rate constant (koff) [3] | Activity [4] | Kd [5] [µM] |
| --- | --- | --- | --- | --- | --- |
| O=C(O)C1CCN(C(=O)c2cc(-c3ccc(Cl)s3)nc3ccccc23)CC1 | 311 | 5.47 ×10⁴ /M/s | 1.7 ×10¹ /s |  |  |
| COC(=O)CN1C(=O)S/C(=C/c2ccc(-c3cccc(C(=O)O)c3C)o2)C1=O | 251 | 4.68 ×10⁶ /M/s |  |  |  |
| CC(C)[C@H](OC(=O)[C@H](C)NC(=O)[C@@H](OC(=O)[C@H](C)NC(=O)OC(C)(C)C)C(C)C)C(=O)O |  |  |  |  | 237 |
| O=C(O)Cc1coc2cc(OS(=O)(=O)c3ccc(Cl)cc3F)ccc12 | 139 | 1.04 ×10⁴ /M/s | 1.45 s⁻¹ |  |  |
